Measured values: paper PMC4507179, “Insights into the key interactions between human protein phosphatase 5 and cantharidin using molecular dynamics and site-directed mutagenesis bioassays” (Scientific Reports, 2015)
Substitutions are numbered along the chain they refer to.

What was measured:
HuPP5 R225A = target: T1, HuPP5 R225A (Homo sapiens, UniProt P53041, R400A); test: Inhibition of recombinant HuPP5 mutant R225A (p-NPP substrate); type: biochemical; conditions: for IC50: recombinant HuPP5 R225A, p-NPP, mean ± S.D., three independent experiments; for ΔΔGbind-exp, R225A: ΔΔGbind = RTln(IC50 mutant/IC50 wild-type)
T1 construct: 6xHis (N); made in house; host or cells: Escherichia coli BL21(DE3)pLysS, pET43.1b
T1 sequence (P53041 1-499 R400A): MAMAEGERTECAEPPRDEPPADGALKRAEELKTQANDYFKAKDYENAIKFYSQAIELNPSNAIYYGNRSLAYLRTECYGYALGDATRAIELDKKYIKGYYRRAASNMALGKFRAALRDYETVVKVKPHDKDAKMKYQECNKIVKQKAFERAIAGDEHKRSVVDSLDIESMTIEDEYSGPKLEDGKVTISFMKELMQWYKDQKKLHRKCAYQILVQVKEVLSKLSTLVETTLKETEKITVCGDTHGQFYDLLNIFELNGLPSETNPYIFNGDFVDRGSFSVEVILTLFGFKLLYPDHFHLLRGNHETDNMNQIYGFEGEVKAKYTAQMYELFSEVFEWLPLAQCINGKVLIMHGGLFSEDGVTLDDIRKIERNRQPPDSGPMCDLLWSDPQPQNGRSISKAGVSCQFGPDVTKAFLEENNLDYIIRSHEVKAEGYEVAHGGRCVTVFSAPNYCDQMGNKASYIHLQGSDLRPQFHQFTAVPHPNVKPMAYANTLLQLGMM
From the text: (§1) A PCR-based site-directed mutagenesis approach was used to change Arg 100 to Ala (R100A), His 129 to Ala (H129A), and Arg 225 to Ala (R225A). All recombinant enzymes were soluble, expressed in E. coli and purified to homogeneity (>90% pure) (Figure S9). […] However, their inhibitory activity was suppressed against the three individually site-directed mutagenesis HuPP5: R100A, H129A, and R225A (Table S7). H129A appears to be most unfavorable to the binding of these inhibitors due to the highest IC50 values (>10 mM). […]
(§2) Site-directed mutagenesis. The sequence encoding the ORF of Human PP5 (HuPP5) was isolated from the liver cancer cell line SMMC-7721 by PCR using primers that introduced a Nde I site and 6xHis tag at the forward one, and a Xho I site at the reverse one. The PCR products were cloned into pCR2.1 (Invitrogen, Carlsbad, CA, USA) and transformed into DH5α (TaKaRa, Dalian, China) and then sequenced (AuGCT, Inc., Beijing, China). The mutants were generated using the QuikChange® site-directed mutagenesis kit (Stratagene, La Jolla, CA, USA) following the instruction manual. The mutagenic primers were designed based on the sequence of wild-type […]
(§3) The mutants were sequenced to confirm the presence of the desired mutations and the lack of undesired mutations.
(§4) Protein expression and purification. The wild-type and mutants HuPP5 were then cloned into the corresponding sites of pET43.1b (Novagen, Madison, WI, USA) and transformed into Escherichia coli BL21(DE3)pLysS (Novagen, Madison, WI, USA). Proteins were expressed in LB (also on this page, place not known: scan ning. T he Cβ -H Cβ -Cγ. energ y tantbinding mu wildtypeG G G −−ΔΔ =Δ −Δ tantbinding muG −Δ binding wildtypeG −Δ binding re spectively. bindingGΔΔ binding (Invitrogen , USA ) site -directed (Stratagene , USA ) wild -type S 5. purification . s ites (Novagen , USA )) […]
(§5) (Luria-Bertani) broth (containing 2 mM MnCl2, 100 μg/ml ampicillin and 34 μg/ml chloramphenicol) and induced with 0.1 mM IPTG (isopropyl β-thiogalactoside) for 24 h at 18 ℃.
(§6) Cells were harvested by centrifugation (8,000 g for 10 min at 4 ℃) and were lysed by sonication in buffer A (20 mM Tris-HCl, pH=8.0, 4 mM MnCl2, 300 mM NaCl) containing 20 mM imidazole, 0.1% β-mercaptoethanol, 1.0 mg/ml lysozyme and 1 mM PMSF. After centrifugation for 20 min at 20,000 g at 4 ℃, the supernatant was loaded to a buffer A pre-equilibrated Ni-NTA affinity column (Transgen, Beijing, China) to bind the 6xHis tagged protein. The reduction of non-specific interactions between the extract proteins and the matrix was achieved by washing the Ni-NTA resins with buffer B (20 mM Tris-HCl, pH=8.0, 300 mM NaCl, 1 mM EGTA, 0.1% β-mercaptoethanol, 4 mM MnCl2) containing 20 mM imidazole. Elution was then conducted using 150 mM imidazole in buffer B. The eluted HuPP5 fractions were pooled and dialyzed against buffer C (buffer B + 50% glycerol) overnight. Dialyzed samples were subjected to 12% SDS-PAGE and stained with Coomassie blue. Protein concentrations were determined using a BCA Protein Assay Kit (Pierce, Thermo Scientific, Rockford, IL, USA).
(§7) Enzymatic assays and inhibition studies. Phosphatase activity was measured using p-NPP (p-nitrophenyl phosphate) as substrate. Assays were performed in a 200 μL reaction containing 500 ng protein and assay buffer (20 mM p-NPP in 20 mM Tris (pH 7.4), 100 μM arachidonic acid, 1 mM EGTA, 0.1% β-mercaptoethanol and 0.1% ethanol). The reaction was initiated by adding the p-NPP and incubated at 35 ℃ for 10 min. Control reactions were assayed without enzyme.
(§8) Assays were terminated by addition of 200 μL of 5 N NaOH. Sample absorbance was measured at A410 using the TECANTM Infinite® 200 PRO multimode micro-plate reader after subtracting the appropriate background. Kinetic parameters were determined by using the Michaelis-Menten […]
(§9) plot analysis of data obtained under the assay conditions as mentioned above with the addition of […]

HuPP5 R100A = target: T2, HuPP5 R100A (Homo sapiens, UniProt P53041, R275A); test: Inhibition of recombinant HuPP5 mutant R100A (p-NPP substrate); type: biochemical; conditions: for IC50: recombinant HuPP5 R100A, p-NPP, mean ± S.D., three independent experiments; for ΔΔGbind-exp, R100A: ΔΔGbind = RTln(IC50 mutant/IC50 wild-type)
T2 construct: 6xHis (N); made in house; host or cells: Escherichia coli BL21(DE3)pLysS, pET43.1b
T2 sequence (P53041 1-499 R275A): T1 sequence (P53041 1-499 R400A) with R275A, A400R
From the text: as §1, §2, §3, §4, §5, §6, §7, §8, §9

PP5 = tested on: PP5; parameters: method as in PMID 17200551, PMID 19025735, PMID 20331621; conditions: read-out: relative IC50 value against PP5; cited from earlier work
HuPP5 H129A = target: T3, HuPP5 H129A (Homo sapiens, UniProt P53041, H304A); test: Inhibition of recombinant HuPP5 mutant H129A (p-NPP substrate); type: biochemical; conditions: for IC50: recombinant HuPP5 H129A, p-NPP; for ΔΔGbind-exp, H129A: ΔΔGbind = RTln(IC50 mutant/IC50 wild-type)
T3 construct: 6xHis (N); made in house; host or cells: Escherichia coli BL21(DE3)pLysS, pET43.1b
T3 sequence (P53041 1-499 H304A): T1 sequence (P53041 1-499 R400A) with H304A, A400R
From the text: as §1, §2, §3, §4, §5, §6, §7, §8, §9

[1] = target: T4, recombinant wild-type HuPP5 (Homo sapiens, UniProt P53041); test: Inhibition of recombinant wild-type HuPP5 phosphatase activity (p-NPP substrate); type: biochemical; conditions: mean ± S.D., three independent experiments
T4 construct: 6xHis (N); made in house; host or cells: Escherichia coli BL21(DE3)pLysS, pET43.1b
T4 sequence (P53041 1-499): T1 sequence (P53041 1-499 R400A) with A400R
Protocol: The structures for the manganese-containing systems (Figure S2) were taken from the Research Collaboration for Structural Bioinformatics protein database (RCSB Protein Data Bank, PDB ID: 3H63; 3H61; 3H64)[22], and all the structures were visualized using pymol 1.3 r1 edu. Manganese-related force field parameters were determined using Seminario’s method. Atomic single charge was calculated using the restrained electrostatic potential (RESP) fitting protocol. The Quantum Mechanics (QM) and Molecular Mechanics (MM) vibrational frequencies were compared to check the quality of the force field parameters. We performed three individual 50 ns MD at different seeds for each system. All MD simulations were performed with the AMBER12 package. All MD results were analyzed with the Ambertools13 package based on three individual 50 ns MD trajectories, and the data were averaged. Molecular Mechanics-Poisson-Boltzmann Surface Area (MM-PBSA)[32] calculations were performed on 1000 snapshots exacted from 40 ~ 50 ns production trajectories with a time interval of 10 ps to estimate the binding free energy. Since only the catalytic domain was used in the simulations, the starting point in our constructed structure corresponds to the 176th residue in the reference structure. […] The IC50 values of the three compounds against all HuPP5 proteins were calculated from the dose-dependent inhibition assay. […]
Cells were harvested by centrifugation (8,000 g for 10 min at 4 ℃) and were lysed by sonication in buffer A (20 mM Tris-HCl, pH=8.0, 4 mM MnCl2, 300 mM NaCl) containing 20 mM imidazole, 0.1% β-mercaptoethanol, 1.0 mg/ml lysozyme and 1 mM PMSF. […] Protein concentrations were determined using a BCA Protein Assay Kit (Pierce, Thermo Scientific, Rockford, IL, USA).
Enzymatic assays and inhibition studies. Phosphatase activity was measured using p-NPP (p-nitrophenyl phosphate) as substrate. […]

Row | SMILES | IC50 (HuPP5 R225A) [µM] | ΔΔGbind-exp, R225A (HuPP5 R225A) [kcal/mol] | IC50 (HuPP5 R100A) [µM] | ΔΔGbind-exp, R100A (HuPP5 R100A) [kcal/mol] | IC50 (PP5) [µM] | IC50 (HuPP5 H129A) [µM] | ΔΔGbind-exp, H129A (HuPP5 H129A) [kcal/mol] | IC50 [1] [µM] | IC50 on R225A higher than that of cantharidin (HuPP5 R225A; ratio of IC50 values on HuPP5 R225A, versus cantharidin) [fold] | IC50 on R225A higher than that of norcantharidin (HuPP5 R225A; ratio of IC50 values on HuPP5 R225A, versus norcantharidin) [fold]
1 | C[C@@]12C(=O)OC(=O)[C@]1(C)[C@H]1CC[C@@H]2O1 [Cantharidin, cantharidin] | 21.9 ± 1.12 | 2.03 | 4.05 ± 0.34 | 0.97 | 0.6 | > 10000 | >5.74 | 0.82 | – | –
2 | O=C1OC(=O)[C@H]2[C@@H]1[C@@H]1CC[C@H]2O1 [Norcantharidin, norcantharidin] | 164 ± 9.84 | 2.24 | 17.8 ± 1.44 | 0.88 | – | > 10000 | >4.75 | 4.18 | – | –
3 | O=C(O)[C@@H]1[C@H](C(=O)O)[C@H]2CC[C@@H]1O2 [Endothall, endothall] | 1060 ± 63.7 | 3.46 | 18.4 ± 0.39 | 0.99 | – | > 10000 | >4.83 | 3.64 | 48.54 | 6.47
